# Experimental data from PubChem BioAssay AID1963976 (Molecular Pharmacology Branch, DTP, NCI, 2024).
# Where “and” joins values, the source holds several entries; their conditions need not be identical. Equal values may be shown once.
# System: 435261-313-R-J1-PDC tumor spheroid viability
# Assay: Anticancer human tumor 435261-313-R-J1-PDC patient-derived colon adenocarcinoma cell line growth inhibition [PI3K]
# Conditions: spheroids with HUVEC and MSC; for viability, T/C: stronger effect = lower value
# Source text: Combinatorial screen of targeted agents with the PI3K inhibitors inavolisib, alpelisib, duvelisib, and copanlisib in multi-cell type tumor spheroids
# A high-throughput screen of multi-cell type tumor spheroids was designed to identify active combinations of targeted small molecules and PI3K pathway inhibitors. Complex spheroids include a stromal component modeled by human endothelial cells (HUVEC) and fibroblasts modeled by human mesenchymal stem cells (MSCs). The concentration ranges selected for each drug and investigational agent were based upon clinically achievable concentrations if the clinical Cmax of the agent was known.
# Compounds. The drugs and investigational agents: inavolisib (NSC800729), alpelisib (NSC765974), duvelisib (NSC772469), copanlisib (NSC816437), ipatasertib (NSC767898), afuresertib (NSC778305), talazoparib (NSC767125), sapanisertib (NSC764658), selumetinib (NSC741078), tovorafenib (DAY101, NSC766906), vemurafenib (NSC761431), ravoxertinib (NSC781343), sotorasib (NSC818433), MRTX1133 (NSC 836407), abemaciclib (NSC 768073), palbociclib (NSC758247), venetoclax (NSC 766270), SY5609 (NSC837396), enzalutamide (NSC755605), and darolutamide (NSC825331), were obtained from the National Cancer Institute (NCI) Developmental Therapeutics Program Chemical Repository. The FDA-approved anticancer drug set is available from the NCI Developmental Therapeutics Program. […] The stock solutions were prepared in dimethyl sulfoxide (DMSO, Sigma-Aldrich, St. Louis, MO, cat. D2650) at 800-fold the tested concentration and stored at -70 degrees C prior to their use. All drugs and investigational agents were tested over a range starting from a high concentration at or near the clinical Cmax and decreasing in half-log increments. If the clinical Cmax for an agent had not been determined, the highest concentration tested was 10 microM.
# Cell Culture. All cells were maintained in an incubator at 37 degrees C and 5% CO2 with 95% humidity. The PDC lines were cultured according to standard operating procedures established by the NCI PDMR (https://pdmr.cancer.gov/sops/default.htm). All PDCs were thawed and cultured in Matrigel-coated flasks prepared with a working solution of 1X Ham's F-12 nutrient mix, without supplementation (Invitrogen, Waltham, MA, cat. 11765054), 100 U/mL penicillin-streptomycin (Invitrogen, cat. 15140122), and 2.5% Matrigel (Corning Inc., Corning, NY, cat. 354248) for the first three passages. The 354836-022-R-J1-PDC, 475296-252-R-J1-PDC, and 997726-040-R-J2-PDC lines were cultured in 6A media, which includes advanced DMEM/F-12 (Thermo Fisher Scientific, cat. 12634028), 10 mM HEPES (Thermo Fisher Scientific, cat. 15630080), 1X GlutaMAX supplement (Thermo Fisher Scientific, cat. 35050061), 0.1 mg/mL primocin (InvivoGen, San Diego, CA, cat. ant-pm-2), 10% defined fetal bovine serum, heat inactivated (HyClone Laboratories Inc., Logan, UT, cat. SH30070.03HI), 50% L-WRN conditioned media (ATCC, cat. CRL-3276), 1.25 mM N-Acetyl-L-cysteine (Sigma-Aldrich, cat. A9165), 10 mM nicotinamide (Sigma-Aldrich, cat. N0636), 1X B-27 supplement (Thermo Fisher Scientific, cat. 17504044), 1X N-2 supplement (Thermo Fisher Scientific, cat. 17502048), and 10 microM Y-27632 dihydrochloride (Tocris Bioscience, Bristol, United Kingdom, cat. 1254). The 624824-186-R-J2-PDC line was cultured in 6C/Colon 1B media, which includes all 6A media components plus 50 ng/mL human EGF recombinant protein (Thermo Fisher Scientific, cat. PHG0311). […]
# 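Note: spheroids exposed to compounds for 7 days.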
Compound,IC50 (curve of compound),"viability, T/C (compound 0.0316 µM)","viability, T/C (compound 0.1 µM)","viability, T/C (compound 0.316 µM)","viability, T/C (compound 1 µM)","viability, T/C (compound 3.16 µM)","viability, T/C (compound 10 µM)",further results
CCN1CCN(Cc2ccc(Nc3ncc(F)c(-c4cc(F)c5nc(C)n(C(C)C)c5c4)n3)nc2)CC1,,61.7% and 67.7% and 78.4%,48.9% and 58.6% and 55.6%,47.7% and 44.3% and 50.4%,40.8% and 56.3% and 51.8%,,,"viability, T/C (compound 0.00316 µM): 78.8% and 104% and 106%; viability, T/C (compound 0.01 µM): 94.5% and 76.5% and 82.8%"
CNC(=O)c1ccc(N2C(=S)N(c3ccc(C#N)c(C(F)(F)F)c3)C(=O)C2(C)C)cc1F,> 10000 nM,,,,,106% [middle of 4 runs],,
COc1c(OCCCN2CCOCC2)ccc2c3n(c(=NC(=O)c4cnc(N)nc4)nc12)CCN3,,29% [middle of 6 runs],15.8% [middle of 6 runs],8.17% [middle of 6 runs],4.83% [middle of 6 runs],,,"IC50 (compound alone, run of 06/13/2023): 13.3 nM [middle of 6 runs]"
Cc1nc(NC(=O)N2CCCC2C(N)=O)sc1-c1ccnc(C(C)(C)C(F)(F)F)c1 (centres undefined),,,82.1% [middle of 6 runs],64.4% [middle of 6 runs],27.3% [middle of 6 runs],17.2% [middle of 6 runs],7% [middle of 6 runs],"IC50 (compound alone, run of 06/12/2023): 447 nM [middle of 6 runs]"
Cn1ncc(Cl)c1-c1cc(C(=O)NC(CN)Cc2cccc(F)c2)sc1Cl (centres undefined),641 nM and 571 nM and 978 nM,104% and 107% and 76.9%,82.6% and 66.1% and 92.1%,70.9% and 90.8% and 66.1%,26.1% and 32.2% and 54.4%,20.6% and 20.1% and 23.6%,8.15% and 8% and 9.52%,
Cn1nccc1Nc1nccc(-c2ccn(C(CO)c3ccc(Cl)c(F)c3)c(=O)c2)n1 (centres undefined),,,,68.2% [middle of 4 runs],45.7% [middle of 4 runs],30.4% [middle of 4 runs],18.4% [middle of 4 runs],

# More lines, main results first:
IC50 (curve of compound),Compound,"viability, T/C (compound 0.0316 µM)","viability, T/C (compound 0.1 µM)","viability, T/C (compound 0.316 µM)","viability, T/C (compound 1 µM)","viability, T/C (compound 3.16 µM)","viability, T/C (compound 10 µM)",further results
5400 nM and 5680 nM,CCCS(=O)(=O)Nc1ccc(F)c(C(=O)c2c[nH]c3ncc(-c4ccc(Cl)cc4)cc23)c1F,77% and 97.8%,91% and 84.7%,110% and 111%,120% and 96.2%,88.7% and 98.1%,5.61% and 4.11%,
> 10000 nM,C[C@@H](NC(=O)c1ncnc(N)c1Cl)c1ncc(C(=O)Nc2cc(C(F)(F)F)c(Cl)cn2)s1,133% and 131% and 118%,127% and 106% and 111%,154% and 79.3% and 153%,151% and 130% and 124%,146% and 120% and 129%,120% and 114% and 88.1%,
< 9.49 nM,Cn1cnc2c(F)c(Nc3ccc(Br)cc3Cl)c(C(=O)NOCCO)cc21,,,,,,,"viability, T/C (compound 0.00949 µM): 33.8% and 34.9% and 45.8%; viability, T/C (compound 0.03 µM): 32.3% and 27.6% and 36%; viability, T/C (compound 0.0949 µM): 12.5% and 23.4% and 29.8%; viability, T/C (compound 0.3 µM): 30.7% and 22.9% and 24.5%; viability, T/C (compound 0.949 µM): 16.1% and 18.4% and 20.9%; viability, T/C (compound 3 µM): 9.65% and 10.9% and 16.8%"
> 100 nM,Cn1ncnc1[C@H]1c2n[nH]c(=O)c3cc(F)cc(c23)N[C@@H]1c1ccc(F)cc1,,62.6% [middle of 4 runs],,,,,"viability, T/C (compound 0.00316 µM): 93.3% and 79.8% (2×) and 89.1%"
